# Measured values published in patent publication US10227357B2, “Compounds and methods for kinase modulation, and indications therefor” (Plexxikon Inc., priority 2012, dated 2019).
# How the values were obtained:
# c-kit kinase = biological target: T1, c-kit kinase (Homo sapiens, UniProt P10721); assay: c-Kit biochemical assay, AlphaScreen, 10 μM ATP; settings: c-kit biochemical inhibitory activity; read-out: Biochemical activity (IC50 μM) Kit
# T1 construct: The c-kit (or kinase domain thereof) is an active kinase in AlphaScreen; poly-Histidine tag (in-house protein only) (cleaved yes); host or cells: E. coli BL21(DE3)RIL, co-expressed with PTP1B
# T1 sequence (P10721 26-976): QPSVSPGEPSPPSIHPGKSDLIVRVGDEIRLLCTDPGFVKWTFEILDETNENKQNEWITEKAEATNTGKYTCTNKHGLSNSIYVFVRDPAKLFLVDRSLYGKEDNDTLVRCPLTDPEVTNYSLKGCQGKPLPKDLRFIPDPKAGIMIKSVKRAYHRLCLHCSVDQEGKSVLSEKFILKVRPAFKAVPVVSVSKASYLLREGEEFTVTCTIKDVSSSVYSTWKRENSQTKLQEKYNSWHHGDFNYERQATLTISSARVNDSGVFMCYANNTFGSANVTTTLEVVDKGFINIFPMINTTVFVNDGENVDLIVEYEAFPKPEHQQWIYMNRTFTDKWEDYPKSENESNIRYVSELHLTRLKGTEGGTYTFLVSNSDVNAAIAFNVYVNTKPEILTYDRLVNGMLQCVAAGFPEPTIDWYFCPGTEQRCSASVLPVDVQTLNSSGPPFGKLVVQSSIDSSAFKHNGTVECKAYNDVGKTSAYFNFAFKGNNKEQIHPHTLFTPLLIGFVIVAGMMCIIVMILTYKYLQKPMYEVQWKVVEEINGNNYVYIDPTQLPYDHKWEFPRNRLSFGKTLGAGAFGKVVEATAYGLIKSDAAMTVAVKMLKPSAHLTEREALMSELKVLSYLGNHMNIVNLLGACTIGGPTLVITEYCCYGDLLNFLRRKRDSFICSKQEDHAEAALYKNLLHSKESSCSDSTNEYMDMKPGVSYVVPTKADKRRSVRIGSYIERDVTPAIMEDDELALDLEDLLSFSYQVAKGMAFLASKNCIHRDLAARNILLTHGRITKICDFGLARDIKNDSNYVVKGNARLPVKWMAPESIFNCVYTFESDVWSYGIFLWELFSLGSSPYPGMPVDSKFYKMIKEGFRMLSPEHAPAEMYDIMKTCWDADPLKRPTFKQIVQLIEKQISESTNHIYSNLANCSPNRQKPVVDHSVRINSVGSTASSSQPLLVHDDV
# Outline: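 His-tagged c-Kit expressed in E. coli with co-expressed PTP1B (dephosphorylated), tag removed; 0.1 ng per reaction with biotinylated-peptide substrate in 50 mM HEPES pH 7.2, 5 mM MgCl2, 5 mM MnCl2, 5% DMSO, 10 μM ATP, 1 h at room temperature. Phosphorylation detected by AlphaScreen (streptavidin donor, PY20 acceptor beads); IC50 from 8-point 1:3 dilution series.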
# c-kit mutant D816V = biological target: T2, c-kit mutant D816V (Homo sapiens, UniProt P10721, D816V/DEL694-753); assay: c-Kit mutant D816V biochemical assay, AlphaScreen; settings: c-kit D816V biochemical inhibitory activity; read-out: Biochemical activity (IC50 μM) Kit D816V
# T2 construct: residues 551-934, kinase insertion domain residues 694-753 deleted; 6x-histidine (N); made in house; host or cells: E. coli Arctic Express (DE3) RIL (Stratagene)
# T2 sequence (P10721 with tags, fused parts or gaps DEL694-753/D816V): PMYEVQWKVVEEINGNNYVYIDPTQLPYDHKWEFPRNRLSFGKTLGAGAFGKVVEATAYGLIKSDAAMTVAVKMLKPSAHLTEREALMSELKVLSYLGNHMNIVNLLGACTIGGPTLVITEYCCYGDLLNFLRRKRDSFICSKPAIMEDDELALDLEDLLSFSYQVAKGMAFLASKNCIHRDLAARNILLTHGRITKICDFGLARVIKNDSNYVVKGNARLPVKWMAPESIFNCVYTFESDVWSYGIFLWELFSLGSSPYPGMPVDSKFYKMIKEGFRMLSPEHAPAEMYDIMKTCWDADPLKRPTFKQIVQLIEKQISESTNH
# Outline: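 Eight-point, threefold compound series incubated 30 min at room temperature with E. coli-produced D816V kinase, 10 μM ATP, Mg2+/Mn2+ HEPES buffer pH 7.2 and 5% DMSO. After EDTA stop, streptavidin and anti-phosphotyrosine (PY20) AlphaScreen beads gave the read-out, and IC50 was fitted from the concentration–signal curve.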
Structure (SMILES),IC50 (c-kit kinase),IC50 (c-kit mutant D816V)
"COc1cccc([C@H](C)NC(=O)N2CCN(c3ncnc4cc(C5=CC(C)(C)NC(C)(C)C5)sc34)CC2)c1 [P-0574, N-[(1S)-1-(3-methoxyphenyl)ethyl]-4-[6-(2,2,6,6-tetramethyl-1,3-dihydropyridin-4-yl)thieno[3,2-d]pyrimidin-4-yl]piperazine-1-carboxamide]",1 to 10 µM,0.0001 to 1 µM
"C[C@H](NC(=O)N1CCN(c2ncnc3cc(-c4ccc(F)cc4)sc23)CC1(C)C)c1ccc(Cl)cc1 [P-0575, N-[(1S)-1-(4-chlorophenyl)ethyl]-4-[6-(4-fluorophenyl)thieno[3,2-d]pyrimidin-4-yl]-2,2-dimethyl-piperazine-1-carboxamide]",10 to 200 µM,0.0001 to 1 µM
"COc1ccc([C@H](C)NC(=O)N2CCN(c3ncnc4cc(-c5ccc(F)cc5)sc34)CC2(C)C)cc1 [P-0576, 4-[6-(4-fluorophenyl)thieno[3,2-d]pyrimidin-4-yl]-N-[(1S)-1-(4-methoxyphenyl)ethyl]-2,2-dimethyl-piperazine-1-carboxamide]",10 to 200 µM,0.0001 to 1 µM
"C[C@H](NC(=O)N1CCN(c2ncnc3cc(-c4ccc(F)cc4)sc23)CC1(C)C)c1cccc(OC(F)F)c1 [P-0577, N-[(1S)-1-[3-(difluoromethoxy)phenyl]ethyl]-4-[6-(4-fluorophenyl)thieno[3,2-d]pyrimidin-4-yl]-2,2-dimethyl-piperazine-1-carboxamide]",10 to 200 µM,0.0001 to 1 µM
"C[C@H](NC(=O)N1CC=C(c2ncnc3cc(-c4ccc(F)cc4)sc23)CC1)c1cccc(Cl)c1 [P-0579, N-[(1S)-1-(3-chlorophenyl)ethyl]-4-[6-(4-fluorophenyl)thieno[3,2-d]pyrimidin-4-yl]-3,6-dihydro-2H-pyridine-1-carboxamide]",10 to 200 µM,1 to 10 µM
"C[C@H](NC(=O)N1CCN(c2ncnc3cc(-c4ccc(F)cc4)sc23)CC1(C)C)c1cccc(Cl)c1 [P-0580, N-[(1S)-1-(3-chlorophenyl)ethyl]-4-[6-(4-fluorophenyl)thieno[3,2-d]pyrimidin-4-yl]-2,2-dimethyl-piperazine-1-carboxamide]",10 to 200 µM,0.0001 to 1 µM
"COc1cccc([C@H](C)NC(=O)N2CC=C(c3ncnc4cc(-c5ccc(F)cc5)sc34)CC2)c1 [P-0581, 4-[6-(4-fluorophenyl)thieno[3,2-d]pyrimidin-4-yl]-N-[(1S)-1-(3-methoxyphenyl)ethyl]-3,6-dihydro-2H-pyridine-1-carboxamide]",1 to 10 µM,0.0001 to 1 µM
"COc1cccc([C@H](C)NC(=O)N2CC=C(c3ncnc4cc(-c5cn(C)nc5C)sc34)CC2)c1 [P-0582, 4-[6-(1,3-dimethylpyrazol-4-yl)thieno[3,2-d]pyrimidin-4-yl]-N-[(1S)-1-(3-methoxyphenyl)ethyl]-3,6-dihydro-2H-pyridine-1-carboxamide]",1 to 10 µM,0.0001 to 1 µM
"Cc1ccc(S(=O)(=O)Nc2ccc(-c3ncnc4cc(C5=CCN(C(=O)C6CC6)CC5)sc34)cc2)cc1 [P-0583, N-[4-[6-[1-(cyclopropanecarbonyl)-3,6-dihydro-2H-pyridin-4-yl]thieno[3,2-d]pyrimidin-4-yl]phenyl]-4-methyl-benzenesulfonamide]",0.0001 to 1 µM,0.0001 to 1 µM
"Cc1nn(C)cc1-c1cc2ncnc(N3CCN(C(=O)N[C@@H](C)c4cccc(F)c4)[C@H](C)C3)c2s1 [P-0584, (2R)-4-[6-(1,3-dimethylpyrazol-4-yl)thieno[3,2-d]pyrimidin-4-yl]-N-[(1S)-1-(3-fluorophenyl)ethyl]-2-methyl-piperazine-1-carboxamide]",1 to 10 µM,0.0001 to 1 µM
"C[C@H](NC(=O)N1CCN(c2ncnc3cc(-c4ccc(F)cc4)sc23)C[C@H]1C)c1cccc(F)c1 [P-0585, (2R)-N-[(1S)-1-(3-fluorophenyl)ethyl]-4-[6-(4-fluorophenyl)thieno[3,2-d]pyrimidin-4-yl]-2-methyl-piperazine-1-carboxamide]",1 to 10 µM,1 to 10 µM
"C[C@H](NC(=O)N1CCN(c2ncnc3cc(-c4ccc(F)cc4)sc23)C[C@H]1C)c1cccc(OC(F)F)c1 [P-0586, (2R)-N-[(1S)-1-[3-(difluoromethoxy)phenyl]ethyl]-4-[6-(4-fluorophenyl)thieno[3,2-d]pyrimidin-4-yl]-2-methyl-piperazine-1-carboxamide]",1 to 10 µM,0.0001 to 1 µM
"Cc1nn(C)cc1-c1cc2ncnc(N3CCN(C(=O)N[C@@H](C)c4cccc(OC(F)F)c4)[C@H](C)C3)c2s1 [P-0587, (2R)-N-[(1S)-1-[3-(difluoromethoxy)phenyl]ethyl]-4-[6-(1,3-dimethylpyrazol-4-yl)thieno[3,2-d]pyrimidin-4-yl]-2-methyl-piperazine-1-carboxamide]",10 to 200 µM,0.0001 to 1 µM
"O=C(NCc1ccc(F)cc1)N1CCN(c2ncnc3cc(C4CCN(C(=O)C5CC5)CC4)sc23)CC1 [P-0588, 4-[6-[1-(cyclopropanecarbonyl)-4-piperidyl]thieno[3,2-d]pyrimidin-4-yl]-N-[(4-fluorophenyl)methyl]piperazine-1-carboxamide]",10 to 200 µM,0.0001 to 1 µM
"C[C@H](NC(=O)N1CCN(c2ncnc3cc(N4CCOCC4)sc23)CC1)c1ccc(F)cc1 [P-0589, N-[(1S)-1-(4-fluorophenyl)ethyl]-4-(6-morpholinothieno[3,2-d]pyrimidin-4-yl)piperazine-1-carboxamide]",10 to 200 µM,0.0001 to 1 µM
"Cc1ccc(S(=O)(=O)Nc2ccc(-c3ncnc4cc(C5=CCN(C(=O)N6CCOCC6)CC5)sc34)cc2)cc1 [P-0590, 4-methyl-N-[4-[6-[1-(morpholine-4-carbonyl)-3,6-dihydro-2H-pyridin-4-yl]thieno[3,2-d]pyrimidin-4-yl]phenyl]benzenesulfonamide]",0.0001 to 1 µM,0.0001 to 1 µM
"Cc1nn(C)cc1-c1cc2ncnc(N3CCN(C(=O)N[C@@H](C)c4cccc(Cl)c4)[C@H](C)C3)c2s1 [P-0591, (2R)-N-[(1S)-1-(3-chlorophenyl)ethyl]-4-[6-(1,3-dimethylpyrazol-4-yl)thieno[3,2-d]pyrimidin-4-yl]-2-methyl-piperazine-1-carboxamide]",10 to 200 µM,0.0001 to 1 µM
"Cc1ccc(S(=O)(=O)Nc2ccc(-c3ncnc4cc(C5CCNCC5)sc34)cc2)cc1 [P-0592, 4-methyl-N-[4-[6-(4-piperidyl)thieno[3,2-d]pyrimidin-4-yl]phenyl]benzenesulfonamide]",10 to 200 µM,0.0001 to 1 µM
"C[C@H](NC(=O)N1CCN(c2ncnc3cc(-c4ccc(F)cc4)sc23)CC1(C)C)c1ccc(F)cc1 [P-0593, N-[(1S)-1-(4-fluorophenyl)ethyl]-4-[6-(4-fluorophenyl)thieno[3,2-d]pyrimidin-4-yl]-2,2-dimethyl-piperazine-1-carboxamide]",10 to 200 µM,0.0001 to 1 µM
"COc1cccc([C@H](C)NC(=O)N2CCN(c3ncnc4cc(-c5ccc(F)cc5)sc34)CC2(C)C)c1 [P-0594, 4-[6-(4-fluorophenyl)thieno[3,2-d]pyrimidin-4-yl]-N-[(1S)-1-(3-methoxyphenyl)ethyl]-2,2-dimethyl-piperazine-1-carboxamide]",1 to 10 µM,0.0001 to 1 µM
"CC1(C)CN(c2ncnc3cc(-c4ccc(F)cc4)sc23)CCN1 [P-0595, 4-(3,3-dimethylpiperazin-1-yl)-6-(4-fluorophenyl)thieno[3,2-d]pyrimidine]",10 to 200 µM,10 to 200 µM
"O=C(NCc1ccc(F)cc1)N1CCN(c2ncnc3cc(C4CCNCC4)sc23)CC1 [P-0596, N-[(4-fluorophenyl)methyl]-4-[6-(4-piperidyl)thieno[3,2-d]pyrimidin-4-yl]piperazine-1-carboxamide]",10 to 200 µM,1 to 10 µM
"COc1cccc([C@H](C)NC(=O)N2CCN(c3ncnc4cc(-c5cn(C)nc5C)sc34)C[C@H]2C)c1 [P-0598, (2R)-4-[6-(1,3-dimethylpyrazol-4-yl)thieno[3,2-d]pyrimidin-4-yl]-N-[(1S)-1-(3-methoxyphenyl)ethyl]-2-methyl-piperazine-1-carboxamide]",1 to 10 µM,0.0001 to 1 µM
"Cc1nn(C)cc1-c1cc2ncnc(N3CCN(C(=O)N[C@@H](C)c4ccc(F)cc4)[C@H](C)C3)c2s1 [P-0599, (2R)-4-[6-(1,3-dimethylpyrazol-4-yl)thieno[3,2-d]pyrimidin-4-yl]-N-[(1S)-1-(4-fluorophenyl)ethyl]-2-methyl-piperazine-1-carboxamide]",10 to 200 µM,0.0001 to 1 µM
"COc1cccc([C@H](C)NC(=O)N2CCN(c3ncnc4cc(-c5ccc(F)cc5)sc34)C[C@H]2C)c1 [P-0600, (2R)-4-[6-(4-fluorophenyl)thieno[3,2-d]pyrimidin-4-yl]-N-[(1S)-1-(3-methoxyphenyl)ethyl]-2-methyl-piperazine-1-carboxamide]",10 to 200 µM,0.0001 to 1 µM
"C[C@@H]1CN(c2ncnc3cc(-c4ccc(F)cc4)sc23)CCN1C(=O)NCc1ccc(F)cc1 [P-0602, (2R)-N-[(4-fluorophenyl)methyl]-4-[6-(4-fluorophenyl)thieno[3,2-d]pyrimidin-4-yl]-2-methyl-piperazine-1-carboxamide]",10 to 200 µM,0.0001 to 1 µM
